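Tested at 5 concentrations; 48 h exposure; 96-well plates; endpoints linearly interpolated, else capped at highest concentration. GI50 is the concentration that inhibits growth by half. TGI: concentration producing complete growth inhibition.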
How the values were obtained:
Test in all cases: DTP human tumour cell line panel, 48 h; in the data active = GI50 below about 0.43 µM; inactive = the rest
COLO 205 colon = tested on: COLO 205 colon
IGROV1 ovarian = tested on: IGROV1 ovarian
HCT-116 colon = tested on: HCT-116 colon
786-0 renal = tested on: 786-0 renal
EKVX NSCLC = tested on: EKVX NSCLC
CAKI-1 renal = tested on: CAKI-1 renal
SK-MEL-28 melanoma = tested on: SK-MEL-28 melanoma
UACC-62 melanoma = tested on: UACC-62 melanoma
M14 melanoma = tested on: M14 melanoma
SF-268 CNS = tested on: SF-268 CNS

NCc1ccc(-n2c(-c3nonc3N)nc3cnccc32)cc1
> 25 µM: TGI (COLO 205 colon) | TGI (IGROV1 ovarian) | TGI (HCT-116 colon) | TGI (786-0 renal) | TGI (EKVX NSCLC) | TGI (CAKI-1 renal) | TGI (SK-MEL-28 melanoma) | TGI (UACC-62 melanoma) | TGI (M14 melanoma) | TGI (SF-268 CNS)
inactive: GI50 (COLO 205 colon) 5.53 µM | GI50 (IGROV1 ovarian) > 25 µM | GI50 (HCT-116 colon) 2.69 µM | GI50 (786-0 renal) 7.51 µM | GI50 (EKVX NSCLC) > 25 µM | GI50 (CAKI-1 renal) 2.27 µM | GI50 (SK-MEL-28 melanoma) 11.4 µM | GI50 (UACC-62 melanoma) > 25 µM | GI50 (M14 melanoma) > 25 µM | GI50 (SF-268 CNS) 5.26 µM

CC1=NN(C(=O)c2ccc(Cl)cc2)C(=O)/C1=C/c1cccc([N+](=O)[O-])c1
> 100 µM: TGI (COLO 205 colon) | TGI (IGROV1 ovarian) | TGI (HCT-116 colon) | TGI (786-0 renal) | TGI (EKVX NSCLC) | TGI (CAKI-1 renal) | TGI (SK-MEL-28 melanoma) | TGI (UACC-62 melanoma) | TGI (M14 melanoma) | TGI (SF-268 CNS)

CC(=O)Oc1ccccc1C(=O)C1c2cccc(O)c2C(=O)c2c(O)cccc21
2.85 µM: TGI (IGROV1 ovarian)
3.98 µM: TGI (786-0 renal)
6.15 µM: TGI (EKVX NSCLC)
5.39 µM: TGI (CAKI-1 renal)
2.23 µM: TGI (UACC-62 melanoma)
7.14 µM: TGI (SK-MEL-28 melanoma)
5.16 µM: TGI (M14 melanoma)
1.86 µM: TGI (COLO 205 colon)
5.54 µM: TGI (SF-268 CNS)
3.41 µM: TGI (HCT-116 colon)

COC(=O)C(Cc1nc2ccc(Cl)cc2[nH]c1=O)C(=O)C(=O)Nc1ccccc1[N+](=O)[O-] (stereo not given)
> 100 µM: TGI (COLO 205 colon) | TGI (IGROV1 ovarian) | TGI (HCT-116 colon) | TGI (786-0 renal) | TGI (EKVX NSCLC) | TGI (CAKI-1 renal) | TGI (SK-MEL-28 melanoma) | TGI (UACC-62 melanoma) | TGI (M14 melanoma) | TGI (SF-268 CNS)

CCO[C@@H]1C2C=CC(C2)[C@H]1[N+](=O)[O-] (stereo not given in full)
> 100 µM: TGI (COLO 205 colon) | TGI (IGROV1 ovarian) | TGI (HCT-116 colon) | TGI (786-0 renal) | TGI (EKVX NSCLC) | TGI (CAKI-1 renal) | TGI (SK-MEL-28 melanoma) | TGI (UACC-62 melanoma) | TGI (M14 melanoma) | TGI (SF-268 CNS)

CCc1c[nH]c2ncnc(N3CC[C@@](N)(CNC(=O)c4ccc(F)cc4F)C3)c12
> 85.5 µM: TGI (786-0 renal)
> 100 µM: TGI (COLO 205 colon) | TGI (HCT-116 colon) | TGI (EKVX NSCLC) | TGI (SK-MEL-28 melanoma) | TGI (UACC-62 melanoma) | TGI (M14 melanoma) | TGI (SF-268 CNS)
> 94.9 µM: TGI (IGROV1 ovarian)
> 89.8 µM: TGI (CAKI-1 renal)
inactive: GI50 (COLO 205 colon) 29.8 µM | GI50 (IGROV1 ovarian) 20.1 µM | GI50 (HCT-116 colon) 25 µM | GI50 (786-0 renal) 25.9 µM | GI50 (EKVX NSCLC) 35 µM | GI50 (CAKI-1 renal) 18.7 µM | GI50 (SK-MEL-28 melanoma) 45.4 µM | GI50 (UACC-62 melanoma) 33 µM | GI50 (M14 melanoma) 54.9 µM | GI50 (SF-268 CNS) 38 µM

CN(C)CCNC(=O)c1ccc(Cl)c2c(Nc3ccc(S(N)(=O)=O)cc3)c3ccccc3nc12
17.7 µM: TGI (EKVX NSCLC)
9.38 µM: TGI (SK-MEL-28 melanoma)
2.15 µM: TGI (COLO 205 colon)
13.8 µM: TGI (SF-268 CNS)
9.2 µM: TGI (786-0 renal)
16.5 µM: TGI (IGROV1 ovarian)
10.7 µM: TGI (M14 melanoma)
17.1 µM: TGI (CAKI-1 renal)
3.05 µM: TGI (UACC-62 melanoma)
1.71 µM: TGI (HCT-116 colon)

C=C(C)CCC(C)N1CCC(N2CCC(C(=O)NCCc3ccccc3)CC2)CC1 (stereo not given)
27.5 µM: TGI (SK-MEL-28 melanoma)
inactive: GI50 (COLO 205 colon) 13.4 µM | GI50 (IGROV1 ovarian) > 100 µM | GI50 (HCT-116 colon) 16.8 µM | GI50 (786-0 renal) > 100 µM | GI50 (EKVX NSCLC) 9.27 µM | GI50 (CAKI-1 renal) 17.3 µM | GI50 (SK-MEL-28 melanoma) 13.2 µM | GI50 (UACC-62 melanoma) 13.7 µM | GI50 (M14 melanoma) 15.4 µM | GI50 (SF-268 CNS) 98 µM
75.4 µM: TGI (CAKI-1 renal)
33.8 µM: TGI (COLO 205 colon)
28.8 µM: TGI (UACC-62 melanoma)
31.1 µM: TGI (M14 melanoma)
> 100 µM: TGI (IGROV1 ovarian) | TGI (HCT-116 colon) | TGI (786-0 renal) | TGI (EKVX NSCLC) | TGI (SF-268 CNS)

N/N=C(\Cc1ccccc1)NN=C(N)N
> 100 µM: TGI (COLO 205 colon) | TGI (IGROV1 ovarian) | TGI (HCT-116 colon) | TGI (786-0 renal) | TGI (EKVX NSCLC) | TGI (CAKI-1 renal) | TGI (SK-MEL-28 melanoma) | TGI (UACC-62 melanoma) | TGI (M14 melanoma) | TGI (SF-268 CNS)
